This assay addresses T1, human muscarinic acetylcholine M3 receptor (M3-ACh) (Homo sapiens, UniProt P20309).
T1 construct: expressed in transfected cells; host or cells: CHO-K1 (Chinese Hamster Ovary) cell membranes
Kind of assay: biochemical. In kind it is binding.

Where [1] appears, read: pIC50 (M3 Binding IC50 classes).
Setting [2] is: read-out: pIC50 (M3 Binding IC50 classes) (converted).

Values joined by “and” are separate entries in the source; they are usually repeats but may differ in a detail not shown here. Equal entries are not always repeated. Where two headings read alike, the source gives them in different places.

T1 sequence (P20309 whole entry): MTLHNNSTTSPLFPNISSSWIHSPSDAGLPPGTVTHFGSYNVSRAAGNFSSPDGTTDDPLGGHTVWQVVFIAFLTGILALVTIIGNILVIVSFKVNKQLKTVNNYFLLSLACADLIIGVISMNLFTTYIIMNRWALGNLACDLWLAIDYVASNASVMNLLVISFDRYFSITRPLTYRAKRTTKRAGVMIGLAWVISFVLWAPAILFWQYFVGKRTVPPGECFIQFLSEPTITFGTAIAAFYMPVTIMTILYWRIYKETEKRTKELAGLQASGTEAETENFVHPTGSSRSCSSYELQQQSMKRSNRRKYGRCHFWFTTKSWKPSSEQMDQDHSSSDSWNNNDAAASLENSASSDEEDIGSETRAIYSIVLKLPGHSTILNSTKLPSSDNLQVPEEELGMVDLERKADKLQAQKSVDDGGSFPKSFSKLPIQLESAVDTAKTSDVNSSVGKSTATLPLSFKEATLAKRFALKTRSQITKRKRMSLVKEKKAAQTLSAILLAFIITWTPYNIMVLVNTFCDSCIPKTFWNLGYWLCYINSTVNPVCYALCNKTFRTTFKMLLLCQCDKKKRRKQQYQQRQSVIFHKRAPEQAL

By IC50 is commonly meant the concentration that inhibits the measured activity by half. As to `CC(C(=O)O[C@H]1C[N+]2(CCc3cccc(F)c3)CCC1CC2)(c1ccccc1)N1CCCCCC1` (single isomer, unassigned) [Example 92], the IC50 under setting [1] is < 2 nM. As to `C[C@@](C(=O)O[C@H]1C[N+]2(CC(=O)NCc3ccccc3)CCC1CC2)(c1ccccc1)N1CCCCC1` [Example 16, (3R)-1-[2-(Benzylamino)-2-oxoethyl]-3-{[(2S)-2-phenyl-2-piperidin-1-ylpropanoyl]oxy}-1-azoniabicyclo[2.2.2]octane chloride], the IC50 under setting [1] lay in the range of 2 to 10 nM. On to `CC(C(=O)O[C@H]1C[N+]2(CC(=O)Nc3ccon3)CCC1CC2)(c1ccccc1)N1CCCCCC1` (single isomer, unassigned) [Example 90], for which the IC50 is 0.631 nM (pIC50) and < 2 nM under setting [1].

For the compound `CC(C(=O)O[C@H]1C[N+]2(CC(=O)Nc3cccc(F)c3)CCC1CC2)(c1ccccc1)N1CCCCCC1` (single isomer, unassigned) [Example 88], the concentration for half-maximal inhibition (IC50) under setting [1] was < 2 nM.

`CC(C(=O)O[C@H]1C[N+]2(CC(=O)Nc3ccccc3)CCC1CC2)(c1ccccc1)N1CCCCCC1` (single isomer, unassigned) [Example 89]: the IC50 under setting [1] was < 2 nM. The same measure, in the same setting: for `CC(C(=O)O[C@H]1C[N+]2(Cc3cc(-c4ccccc4)no3)CCC1CC2)(c1cccs1)N1CCSCC1` (single isomer, unassigned) [Example 55] the value was 2 to 10 nM; for `CC1(C)CN(C(C)(C(=O)O[C@H]2C[N+]3(CCCOc4ccccc4)CCC2CC3)c2ccc(Cl)cc2)C1` (single isomer, unassigned) [Example 47], < 2 nM. Same read-out and setting: for `C[C@@](C(=O)O[C@H]1C[N+]2(CC(=O)c3cccc(F)c3)CCC1CC2)(c1ccccc1)N1CCCCC1` [Example 7, (3R)-1-[2-(3-Fluorophenyl)-2-oxoethyl]-3-{[(2S)-2-phenyl-2-piperidin-1-ylpropanoyl]oxy}-1-azoniabicyclo[2.2.2]octane bromide] the value was < 2 nM; for `Cc1cnc(NC(=O)C[N+]23CCC(CC2)[C@@H](OC(=O)C(C)(c2cccs2)N2CCCCC2)C3)cn1` (single isomer, unassigned) [Example 76], < 2 nM. As to `CC(C(=O)O[C@H]1C[N+]2(CC(=O)Nc3ccc(C(F)(F)F)cn3)CCC1CC2)(c1cccs1)N1CCCCC1` (stereo partly drawn) [Example 84, (3R)-1-(2-Oxo-2-{[5-(rifluoromethyl)pyridin-2-yl]amino}ethyl)-3-{[2-piperidin-1-yl-2-(2-thienyl)propanoyl]oxy}-1-azoniabicyclo[2.2.2]octane bromide], under setting [2], the 50% inhibitory concentration (IC50) is 2 to 10 nM and < 2 nM. Take `Cc1ccc(C(=O)C[N+]23CCC(CC2)[C@@H](OC(=O)[C@](C)(c2ccccc2)N2CCCCC2)C3)cc1` [Example 17, (3R)-1-[2-(4-Methylphenyl)-2-oxoethyl]-3-{[(2S)-2-phenyl-2-piperidin-1-ylpropanoyl]oxy}-1-azoniabicyclo[2.2.2]octane bromide]: under setting [1], the IC50 was < 2 nM.

Take `CC(C(=O)O[C@H]1C[N+]2(CC(=O)Nc3cccc(F)c3)CCC1CC2)(c1cccs1)N1CCSCC1` (single isomer, unassigned) [Example 53]: the IC50 under setting [1] was < 2 nM. In the case of `C[C@@](C(=O)O[C@H]1C[N+]2(CC(=O)c3ccccc3)CCC1CC2)(c1ccccc1)N1CCCCC1` [Example 9, (3R)-l-(2-Oxo-2-phenylethyl)-3-{[(2S)-2-phenyl-2-piperidin-1-ylpropanoyl]oxy}-1-azoniabicyclo[2.2.2]octane bromide], the 50% inhibitory concentration (IC50) under setting [1] is < 2 nM.

As to `CC(C(=O)O[C@H]1C[N+]2(CC(=O)Nc3ccon3)CCC1CC2)(c1ccccc1)N1CCSCC1` (single isomer, unassigned) [Example 102], the IC50 under setting [1] is < 2 nM. The same measure, in the same setting: for `CC(C(=O)O[C@H]1C[N+]2(CCc3cccc(F)c3)CCC1CC2)(c1cccs1)N1CCSCC1` (single isomer, unassigned) [Example 51] the value was < 2 nM. In the case of `CC(C(=O)O[C@H]1C[N+]2(CCCOc3ccccc3)CCC1CC2)(c1ccccc1)N1CCSCC1` (single isomer, unassigned) [Example 107], under setting [1], the IC50 was < 2 nM. As to `CC(C(=O)O[C@H]1C[N+]2(CCCc3ccccc3)CCC1CC2)(c1ccccc1)N1CCCCCC1` (single isomer, unassigned) [Example 95], the IC50 under setting [2] was < 2 nM. Regarding `CC(C(=O)O[C@H]1C[N+]2(CCCOc3ccccc3)CCC1CC2)(c1ccccc1)N1CCCCCC1` (single isomer, unassigned) [Example 97], the IC50 under setting [1] is < 2 nM. Same read-out and setting: the figure for `CC(C(=O)O[C@H]1C[N+]2(CCCc3cccnc3)CCC1CC2)(c1ccccc1)N1CCCCCC1` (single isomer, unassigned) [Example 96] is < 2 nM. On the same count and under the same terms, the figure for `CC(C(=O)O[C@H]1C[N+]2(CCOCc3ccc(Cl)cc3)CCC1CC2)(c1ccccc1)N1CCSCC1` (single isomer, unassigned) [Example 108] is 2 to 10 nM. For `CC(C(=O)O[C@H]1C[N+]2(CCc3cccc(Cl)c3)CCC1CC2)(c1ccccc1)N1CCCCCC1` (single isomer, unassigned) [Example 87], under setting [2], the IC50 was < 2 nM. Under setting [1], `C[C@@](C(=O)O[C@H]1C[N+]2(CC(=O)Nc3ccc4[nH]ncc4c3)CCC1CC2)(c1ccccc1)N1CCCCC1` [Example 12, (3R)-1-[2-(1H-Indazol-5-ylamino)-2-oxoethyl]-3-{[(2S)-2-phenyl-2-piperidin-1-ylpropanoyl]oxy}-1-azoniabicyclo[2.2.2]octane chloride] showed an IC50 of 2 to 10 nM. Turning to `CC(C(=O)O[C@H]1C[N+]2(Cc3nc(-c4ccccc4)no3)CCC1CC2)(c1cccs1)N1CCSCC1` (single isomer, unassigned) [Example 56], under setting [1], the IC50 is < 2 nM. As to `CC(C(=O)O[C@H]1C[N+]2(Cc3nc(-c4ccccc4)no3)CCC1CC2)(c1cccs1)N1CCCCC1` (stereo partly drawn) [Example 83], under setting [1], the IC50 was < 2 nM. Same read-out and setting: for `C[C@@](C(=O)O[C@H]1C[N+]2(CC(=O)c3ccc(F)cc3F)CCC1CC2)(c1ccccc1)N1CCCCC1` [Example 5, (3R)-1-[2-(2,4-Difluorophenyl)-2-oxoethyl]-3-{[(2S)-2-phenyl-2-piperidin-1-ylpropanoyl]oxy}-1-azoniabicyclo[2.2.2]octane chloride] the value was 2 to 10 nM; for `COc1cccc(C(=O)C[N+]23CCC(CC2)[C@@H](OC(=O)[C@](C)(c2ccccc2)N2CCCCC2)C3)c1` [Example 8, (3R)-1-[2-(3-Methoxyphenyl)-2-oxoethyl]-3-{[(2S)-2-phenyl-2-piperidin-1-ylpropanoyl]oxy}-1-azoniabicyclo[2.2.2]octane bromide], < 2 nM. Still for that read-out and setting: the figure for `CC(C(=O)O[C@H]1C[N+]2(CCc3cccc(Cl)c3)CCC1CC2)(c1ccccc1)N1CCSCC1` (single isomer, unassigned) [Example 99] is 2 to 10 nM; for `CC(C(=O)O[C@H]1C[N+]2(Cc3nc4ccccc4s3)CCC1CC2)(c1cccs1)N1CCCCC1` (single isomer, unassigned) [Example 75] it is < 2 nM; for `Cn1c(=O)oc2cc(CC[N+]34CCC(CC3)[C@@H](OC(=O)[C@](C)(c3ccccc3)N3CCCCC3)C4)ccc21` [Example 25, (3R)-1-[2-(3-Methyl-2-oxo-2,3-dihydro-1,3-benzoxazol-6-yl)ethyl]-3-{[(2S)-2-phenyl-2-piperidin-1-ylpropanoyl]oxy}-1-azoniabicyclo(2.2.2]octane bromide] it is < 2 nM. Still for that read-out and setting: for `CC(C(=O)O[C@H]1C[N+]2(CCc3cccc(Cl)c3)CCC1CC2)(c1ccccc1)N1CCOCC1` (single isomer, unassigned) [Example 80] the value was 2 to 10 nM. On to `C[C@@](C(=O)O[C@H]1C[N+]2(CC[C@H](O)c3ccccc3)CCC1CC2)(c1ccccc1)N1CCCCC1` [Example 38], for which the IC50 under setting [1] is < 2 nM. Still for that read-out and setting: the figure for `C[C@@](C(=O)O[C@H]1C[N+]2(CC(=O)Nc3ccc(C#N)cc3)CCC1CC2)(c1ccccc1)N1CCCCC1` [Example 11, (3R)-1-{2-[(4-Cyanophenyl)amino]-2-oxoethyl}-3-{[(2S)-2-phenyl-2-piperidin-1-ylpropanoyl]oxy}-1-azoniabicyclo[2.2.2]octane chloride] is 2 to 10 nM. Still for that read-out and setting: the figure for `CC(C(=O)O[C@H]1C[N+]2(CCCc3ccccc3)CCC1CC2)(c1cccs1)N1CCSCC1` (single isomer, unassigned) [Example 50] is < 2 nM. Still for that read-out and setting: the figure for `CC(C(=O)O[C@H]1C[N+]2(CC(=O)Nc3cccc(F)c3)CCC1CC2)(c1ccccc1)N1CCSCC1` (single isomer, unassigned) [Example 100] is < 2 nM; for `CC(C(=O)O[C@H]1C[N+]2(CCCc3ccccc3)CCC1CC2)(c1ccccc1)N1CCSCC1` (single isomer, unassigned) [Example 105] it is 2 to 10 nM; for `Cc1cnc(NC(=O)C[N+]23CCC(CC2)[C@@H](OC(=O)C(C)(c2ccccc2)N2CCCCCC2)C3)cn1` (single isomer, unassigned) [Example 91] it is < 2 nM. For the compound `CC1(C)CN(C(C)(C(=O)O[C@H]2C[N+]3(CCCOc4ccccc4)CCC2CC3)c2ccccc2)C1` (single isomer, unassigned) [Example 48], under setting [1], the IC50 lay within 2 to 10 nM.

Turning to `CC(C(=O)O[C@H]1C[N+]2(CCCc3ccccc3)CCC1CC2)(c1ccccc1)N1CCSCC1` (single isomer, unassigned) [Example 104], under setting [1], the IC50 was < 2 nM. The same measure, in the same setting: the figure for `CCOC(=O)Cc1csc(NC(=O)C[N+]23CCC(CC2)[C@@H](OC(=O)[C@](C)(c2ccccc2)N2CCCCC2)C3)n1` [Example 19, (3R)-1-(2-{[4-(2-Ethoxy-2-oxoethyl)-1,3-thiazol-2-yl]amino}-2-oxoethyl)-3-{[(2S)-2-phenyl-2-piperidin-1-ylpropanoyl]oxy}-1-azoniabicyclo[2.2.2]octane chloride] is 2 to 10 nM; for `Cc1ccc(OCC[N+]23CCC(CC2)[C@@H](OC(=O)C(C)(c2cccs2)N2CCCCC2)C3)c(C)n1` (single isomer, unassigned) [Example 66] it is 2 to 10 nM; for `C[C@@](C(=O)O[C@H]1C[N+]2(CCCS(=O)(=O)c3ccc(C#N)cc3)CCC1CC2)(c1ccccc1)N1CCCCC1` [Example 35, (3R)-1-{3-[(4-Cyanophenyl)sulfonyl]propyl}-3-{[(2S)-2-phenyl-2-piperidin-1-ylpropanoyl]oxy}-1-azoniabicyclo[2.2.2]octane bromide] it is 2 to 10 nM.

For the origin of these results see patent US20100113510A1 (priority 2006, published 2010).
